# Data: article PMC4890168 (Journal of medicinal chemistry, 2016)
# Legend:
# GRK2 = target: T1, GRK2 (Bos taurus, UniProt P21146, S670A, species not given); experiment: GRK2 kinase inhibition; format: biochemical
# T1 sequence (P21146 1-689 S670A): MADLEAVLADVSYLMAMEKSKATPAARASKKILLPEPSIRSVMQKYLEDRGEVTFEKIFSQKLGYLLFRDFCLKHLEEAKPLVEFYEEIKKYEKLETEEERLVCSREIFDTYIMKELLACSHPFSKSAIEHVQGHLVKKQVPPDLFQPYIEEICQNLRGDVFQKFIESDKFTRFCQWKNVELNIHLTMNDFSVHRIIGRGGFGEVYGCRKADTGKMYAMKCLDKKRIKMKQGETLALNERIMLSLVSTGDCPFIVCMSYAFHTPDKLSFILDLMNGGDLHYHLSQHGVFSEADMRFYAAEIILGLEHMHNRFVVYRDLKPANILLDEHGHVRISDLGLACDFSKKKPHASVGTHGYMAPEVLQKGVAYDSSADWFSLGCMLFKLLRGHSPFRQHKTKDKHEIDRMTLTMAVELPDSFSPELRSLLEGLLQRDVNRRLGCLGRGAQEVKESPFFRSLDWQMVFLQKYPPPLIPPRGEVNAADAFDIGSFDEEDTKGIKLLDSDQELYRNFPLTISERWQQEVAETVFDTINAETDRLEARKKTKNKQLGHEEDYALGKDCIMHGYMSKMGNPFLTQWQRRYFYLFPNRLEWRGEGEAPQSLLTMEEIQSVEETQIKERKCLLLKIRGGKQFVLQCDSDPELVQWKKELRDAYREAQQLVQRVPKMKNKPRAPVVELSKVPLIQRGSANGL
# PKA = PKA (Homo sapiens, UniProt P17612); experiment: PKA inhibition, ADP-Glo Kinase Assay
# ROCK1 = ROCK1 (Homo sapiens, UniProt Q13464); experiment: ROCK1 inhibition, ADP-Glo Kinase Assay
# ROCK1, sequence (Q13464 whole entry, species assumed): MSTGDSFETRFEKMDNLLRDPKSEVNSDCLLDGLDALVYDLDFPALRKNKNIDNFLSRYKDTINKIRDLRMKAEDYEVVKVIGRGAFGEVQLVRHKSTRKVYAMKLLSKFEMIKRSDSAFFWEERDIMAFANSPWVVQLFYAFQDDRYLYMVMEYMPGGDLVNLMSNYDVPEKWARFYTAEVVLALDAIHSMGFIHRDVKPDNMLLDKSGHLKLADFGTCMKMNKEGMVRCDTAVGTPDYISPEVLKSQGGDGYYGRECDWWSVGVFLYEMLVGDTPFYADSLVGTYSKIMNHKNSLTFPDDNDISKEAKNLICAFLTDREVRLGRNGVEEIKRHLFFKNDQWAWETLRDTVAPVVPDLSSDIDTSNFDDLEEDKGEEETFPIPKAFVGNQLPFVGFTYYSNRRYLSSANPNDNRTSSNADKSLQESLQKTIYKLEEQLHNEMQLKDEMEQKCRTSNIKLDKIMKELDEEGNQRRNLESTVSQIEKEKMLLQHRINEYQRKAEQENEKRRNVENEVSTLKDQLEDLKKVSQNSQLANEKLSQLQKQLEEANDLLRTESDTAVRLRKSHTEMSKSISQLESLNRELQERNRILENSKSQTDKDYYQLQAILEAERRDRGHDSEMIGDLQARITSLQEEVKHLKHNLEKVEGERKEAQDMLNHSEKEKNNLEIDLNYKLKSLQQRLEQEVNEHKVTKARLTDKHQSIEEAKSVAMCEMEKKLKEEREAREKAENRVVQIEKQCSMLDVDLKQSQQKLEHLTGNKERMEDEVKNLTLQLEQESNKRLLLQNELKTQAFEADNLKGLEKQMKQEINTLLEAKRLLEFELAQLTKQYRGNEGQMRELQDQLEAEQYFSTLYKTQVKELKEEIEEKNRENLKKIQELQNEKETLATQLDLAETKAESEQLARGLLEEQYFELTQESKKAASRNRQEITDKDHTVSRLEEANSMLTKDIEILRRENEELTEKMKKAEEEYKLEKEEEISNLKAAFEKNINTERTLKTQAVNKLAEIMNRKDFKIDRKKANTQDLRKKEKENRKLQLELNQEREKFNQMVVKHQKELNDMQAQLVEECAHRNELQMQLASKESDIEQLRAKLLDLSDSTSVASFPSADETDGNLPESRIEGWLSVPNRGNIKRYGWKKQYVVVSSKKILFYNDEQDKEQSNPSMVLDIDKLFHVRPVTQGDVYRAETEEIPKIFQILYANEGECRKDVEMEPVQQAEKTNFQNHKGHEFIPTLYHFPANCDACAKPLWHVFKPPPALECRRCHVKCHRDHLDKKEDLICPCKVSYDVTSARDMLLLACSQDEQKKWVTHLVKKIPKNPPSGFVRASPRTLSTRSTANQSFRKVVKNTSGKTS
Compound,IC50 (PKA),further results
"CC1=C(C(=O)Nc2ccc3c(c2)OCO3)C(c2ccc(F)c(C(=O)NCc3ccccn3)c2)NC(=O)N1 (centres unmarked) [Compound 24, N-(Benzo[d][1,3]dioxol-5-yl)-4-(4-fluoro-3-((pyridin-2-ylmethyl)carbamoyl)phenyl)-6-methyl-2-oxo-1,2,3,4-tetrahydropyrimidine-5-carboxamide]",> 100 µM,"kinase inhibition (GRK2; GRK2, GRK1, GRK5, PKA (Table 2)): completely inactive"
"CC1=C(C(=O)Nc2ccc3[nH]ncc3c2)C(c2ccc(F)c(CC(=O)NCc3c(C)cccc3C)c2)NC(=O)N1 (centres unmarked) [Compound 13a, 4-(3-(2-((2,6-Dimethylbenzyl)amino)-2-oxoethyl)-4-fluorophenyl)-N-(1H-indazol-5-yl)-6-methyl-2-oxo-1,2,3,4-tetrahydropyrimidine-5-carboxamide]",> 100 µM,–
"CC1=C(C(=O)Nc2ccc3[nH]ncc3c2)C(c2ccc(F)c(C(=O)NCc3c(C(F)(F)F)cccc3C(F)(F)F)c2)NC(=O)N1 (centres unmarked) [Compound 12o, 4-(3-((2,6-Bis(trifluoromethyl)benzyl)carbamoyl)-4-fluorophenyl)-N-(1H-indazol-5-yl)-6-methyl-2-oxo-1,2,3,4-tetrahydropyrimidine-5-carboxamide]",> 100 µM,–
"CC1=C(C(=O)Nc2ccc3[nH]ncc3c2)C(c2ccc(F)c(C(=O)NCCc3c(C)cccc3C)c2)NC(=O)N1 (centres unmarked) [Compound 12r, 4-(3-((2,6-Dimethylphenethyl)carbamoyl)-4-fluorophenyl)-N-(1H-indazol-5-yl)-6-methyl-2-oxo-1,2,3,4-tetrahydropyrimidine-5-carboxamide]",> 100 µM,–
"Fc1ccc([C@@H]2CCNC[C@H]2COc2ccc3c(c2)OCO3)cc1 [Paroxetine, paroxetine, reference compound]",> 100 µM,–
"CNC(=O)c1cc(C2NC(=O)NC(C)=C2C(=O)Nc2ccc3[nH]ncc3c2)ccc1F (centres unmarked) [Compound 12a, 4-(4-Fluoro-3-(methylcarbamoyl)phenyl)-N-(1H-indazol-5-yl)-6-methyl-2-oxo-1,2,3,4-tetrahydropyrimidine-5-carboxamide]",> 100 µM,loss in potency against GRK2 relative to 2 (GRK2): 5 fold
"CC1=C(C(=O)Nc2ccc3[nH]ncc3c2)C(c2ccc(F)c(C(=O)NCc3cc(C(F)(F)F)cc(C(F)(F)F)c3)c2)NC(=O)N1 (centres unmarked) [Compound 12p, 4-(3-((3,5-Bis(trifluoromethyl)benzyl)carbamoyl)-4-fluorophenyl)-N-(1H-indazol-5-yl)-6-methyl-2-oxo-1,2,3,4-tetrahydropyrimidine-5-carboxamide]",> 100 µM,–
"CC1=C(C(=O)Nc2ccc3[nH]ncc3c2)C(c2ccc(F)c(C(=O)NCCc3ccccn3)c2)NC(=O)N1 (centres unmarked) [Compound 12i, 4-(4-Fluoro-3-((2-(pyridin-2-yl)ethyl)carbamoyl)phenyl)-N-(1H-indazol-5-yl)-6-methyl-2-oxo-1,2,3,4-tetrahydropyrimidine-5-carboxamide]",> 100 µM,–
"CC1=C(C(=O)Nc2ccc3[nH]ncc3c2)C(c2ccc(F)c(CC(=O)NCc3c(C(F)(F)F)cccc3C(F)(F)F)c2)NC(=O)N1 (centres unmarked) [Compound 13b, 4-(3-(2-((2,6-Bis(trifluoromethyl)benzyl)amino)-2-oxoethyl)-4-fluorophenyl)-N-(1H-indazol-5-yl)-6-methyl-2-oxo-1,2,3,4-tetrahydropyrimidine-5-carboxamide]",> 100 µM,–
"CC1=C(C(=O)Nc2ccc3[nH]ncc3c2)C(c2ccc(F)c(C(=O)O)c2)NC(=O)N1 (centres unmarked) [Compound 10, 5-(5-((1H-Indazol-5-yl)carbamoyl)-6-methyl-2-oxo-1,2,3,4-tetrahydropyrimidin-4-yl)-2-fluorobenzoic acid]",–,loss in potency against GRK2 relative to 2 (GRK2): 20 fold; loss in potency against PKA relative to 2 (PKA): 2 fold
"CC1=C(C(=O)N(C)c2ccc3[nH]ncc3c2)C(c2ccc(F)c(C(=O)NCc3c(C)cccc3C)c2)NC(=O)N1 (centres unmarked) [Compound 20, 4-(3-((2,6-Dimethylbenzyl)carbamoyl)-4-fluorophenyl)-N-(1H-indazol-5-yl)-N,6-dimethyl-2-oxo-1,2,3,4-tetrahydropyrimidine-5-carboxamide]",> 100 µM,decrease in potency at GRK2 compared to 12m (GRK2): ~70 fold
"CC1=C(C(=O)Nc2ccc3[nH]ncc3c2)C(c2ccc(F)c(C(=O)NCc3ncccc3C)c2)NC(=O)N1 (centres unmarked) [Compound 12q, 4-(4-Fluoro-3-(((3-methylpyridin-2-yl)methyl)carbamoyl)phenyl)-N-(1H-indazol-5-yl)-6-methyl-2-oxo-1,2,3,4-tetrahydropyrimidine-5-carboxamide]",> 100 µM,–
"CC1=C(C(=O)Nc2ccc3[nH]ncc3c2)C(c2ccc(F)c(C(=O)NCCc3ccncc3)c2)NC(=O)N1 (centres unmarked) [Compound 12j, 4-(4-Fluoro-3-((2-(pyridin-4-yl)ethyl)carbamoyl)phenyl)-N-(1H-indazol-5-yl)-6-methyl-2-oxo-1,2,3,4-tetrahydropyrimidine-5-carboxamide]",> 100 µM,–
"COc1cccc(OC)c1CNC(=O)Cc1cc(C2NC(=O)NC(C)=C2C(=O)Nc2ccc3[nH]ncc3c2)ccc1F (centres unmarked) [Compound 13c, 4-(3-(2-((2,6-Dimethoxybenzyl)amino)-2-oxoethyl)-4-fluorophenyl)-N-(1H-indazol-5-yl)-6-methyl-2-oxo-1,2,3,4-tetrahydropyrimidine-5-carboxamide]",> 100 µM,–

# More lines, main results first:
IC50 (PKA),Compound,further results
> 100 µM,"CC1=C(C(=O)Nc2ccc3[nH]ncc3c2)C(c2ccc(F)c(C(=O)NCc3ccccn3)c2)NC(=O)N1 (centres unmarked) [Compound 12h, 4-(4-Fluoro-3-((pyridin-2-ylmethyl)carbamoyl)phenyl)-N-(1H-indazol-5-yl)-6-methyl-2-oxo-1,2,3,4-tetrahydropyrimidine-5-carboxamide]",IC50 (ROCK1): ~10 nM; increase in potency for ROCK1 over 2 (ROCK1): 10 fold
> 100 µM,"CC1=C(C(=O)Nc2ccc3[nH]ncc3c2)C(c2ccc(F)c(C(=O)NCc3ccccc3)c2)NC(=O)N1 (centres unmarked) [Compound 12b, 4-(3-(Benzylcarbamoyl)-4-fluorophenyl)-N-(1H-indazol-5-yl)-6-methyl-2-oxo-1,2,3,4-tetrahydropyrimidine-5-carboxamide]",–
> 100 µM,"CC1=C(C(=O)Nc2ccc3[nH]ncc3c2)C(c2ccc(F)c(C(=O)NCc3cccc(F)c3)c2)NC(=O)N1 (centres unmarked) [Compound 12c, 4-(4-Fluoro-3-((3-fluorobenzyl)carbamoyl)phenyl)-N-(1H-indazol-5-yl)-6-methyl-2-oxo-1,2,3,4-tetrahydropyrimidine-5-carboxamide]",–
> 100 µM,"COc1ccccc1CNC(=O)c1cc(C2NC(=O)NC(C)=C2C(=O)Nc2ccc3[nH]ncc3c2)ccc1F (centres unmarked) [Compound 12e, 4-(4-Fluoro-3-((2-methoxybenzyl)carbamoyl)phenyl)-N-(1H-indazol-5-yl)-6-methyl-2-oxo-1,2,3,4-tetrahydropyrimidine-5-carboxamide]",–
> 100 µM,"COc1ccc(CNC(=O)c2cc(C3NC(=O)NC(C)=C3C(=O)Nc3ccc4[nH]ncc4c3)ccc2F)cc1 (centres unmarked) [Compound 12g, 4-(4-Fluoro-3-((4-methoxybenzyl)carbamoyl)phenyl)-N-(1H-indazol-5-yl)-6-methyl-2-oxo-1,2,3,4-tetrahydropyrimidine-5-carboxamide]",–
> 100 µM,"COc1cccc(CNC(=O)c2cc(C3NC(=O)NC(C)=C3C(=O)Nc3ccc4[nH]ncc4c3)ccc2F)c1 (centres unmarked) [Compound 12f, 4-(4-Fluoro-3-((3-methoxybenzyl)carbamoyl)phenyl)-N-(1H-indazol-5-yl)-6-methyl-2-oxo-1,2,3,4-tetrahydropyrimidine-5-carboxamide]",–
